From patent US6638546B2 (Council of Scientific & Industrial Research, priority 2001, dated 2003)
Entries after “also recorded” stand apart in the source; their conditions may differ.

Columns and labels:
M2 receptors = target: T1, M2 receptors (Cavia porcellus, UniProt H0VRN8); experiment: Dose response curve of acetylcholine on isolated guinea pig atria; settings: for Inhibitory effect on rate and force of contraction of guinea pig atria (M2 block): dosage range used
T1 construct: The atria beat spontaneously; from tissue; host or cells: isolated guinea pig atria
T1 sequence (H0VRN8 1-466): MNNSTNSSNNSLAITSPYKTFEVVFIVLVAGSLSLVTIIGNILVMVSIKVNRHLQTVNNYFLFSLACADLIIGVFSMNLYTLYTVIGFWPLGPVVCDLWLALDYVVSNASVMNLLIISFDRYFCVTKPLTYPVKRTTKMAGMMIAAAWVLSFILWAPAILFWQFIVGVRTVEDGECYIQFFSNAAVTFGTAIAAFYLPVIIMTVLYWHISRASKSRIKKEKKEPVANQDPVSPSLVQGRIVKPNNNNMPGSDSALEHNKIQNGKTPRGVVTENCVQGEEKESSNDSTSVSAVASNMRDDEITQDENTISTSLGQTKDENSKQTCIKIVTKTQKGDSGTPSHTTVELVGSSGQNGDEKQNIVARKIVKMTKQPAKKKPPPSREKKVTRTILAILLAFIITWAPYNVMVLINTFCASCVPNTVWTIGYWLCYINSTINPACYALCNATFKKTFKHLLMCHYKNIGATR
Procedure: The in vitro experiments were performed on atria, ileum and bladder tissues of guinea pig. Atria were removed, and one end was tied to an oxygen tube and the other end was fixed to a Force transducer (Model T-305), which is connected to a physiograph (Biodevices Physiograph). The atria beat spontaneously, and after equilibration (30 minutes), resting tension was adjusted to the peak of the length tension curve followed by a re-equilibration period (30 minutes). Cumulative concentration response curves to acetylcholine were obtained before and after addition of increasing concentrations of the compound (doses said in Example 5). Responses were expressed as a percentage of the maximal inhibition of atrial rate induced by acetylcholine in absence of the antagonist (compound).

Salmonella = Salmonella and mammalian microsome assays; cited from earlier work
[1] = rat, in vivo; cited from earlier work
M3 receptors [2] = target: T2, M3 receptors (Cavia porcellus, UniProt H0W1Z3); experiment: Dose response curve of acetylcholine on isolated guinea pig ileum; settings: 98, 196 and 392×10^−6 moles per ml of bath
T2 construct: from tissue; host or cells: guinea pig longitudinal ileal muscle; guinea pig bladder detrusor strips
T2 sequence (H0W1Z3 1-590): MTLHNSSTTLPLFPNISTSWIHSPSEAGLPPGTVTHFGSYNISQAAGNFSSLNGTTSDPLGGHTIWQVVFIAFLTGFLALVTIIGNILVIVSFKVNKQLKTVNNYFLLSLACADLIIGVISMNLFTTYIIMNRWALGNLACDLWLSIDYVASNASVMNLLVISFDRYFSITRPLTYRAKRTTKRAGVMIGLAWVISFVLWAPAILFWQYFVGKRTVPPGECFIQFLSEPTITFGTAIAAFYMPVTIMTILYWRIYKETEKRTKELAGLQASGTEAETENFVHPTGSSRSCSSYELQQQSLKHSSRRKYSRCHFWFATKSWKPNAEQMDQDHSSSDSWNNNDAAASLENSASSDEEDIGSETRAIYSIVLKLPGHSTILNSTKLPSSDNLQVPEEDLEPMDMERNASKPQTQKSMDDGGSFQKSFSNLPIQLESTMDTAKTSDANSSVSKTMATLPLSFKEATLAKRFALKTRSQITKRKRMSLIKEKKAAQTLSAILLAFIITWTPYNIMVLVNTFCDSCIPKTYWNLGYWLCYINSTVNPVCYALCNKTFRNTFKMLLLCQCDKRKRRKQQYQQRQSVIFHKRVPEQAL
Text: (§1) The three doses prepared and applied were 98×10^−6 moles per milliliter of bath concentration; 196×10^−6 moles per milliliter of bath concentration and 392×10^−6 moles per milliliter of bath concentration. For comparative purposes, the three doses of atropine used were 35×10^−6 moles per milliliter of bath concentration; 86×10^−6 moles per milliliter of bath concentration and 173×10^−[…] moles per milliliter of bath concentration.
The longitudinal ileal muscle was suspended in an organ bath in aerated Tyrode solution. […]. Doses of the compound were as given in Example 5.

M1 receptors = target: T3, M1 receptors (Rattus norvegicus, UniProt P08482); experiment: Basal gastric acidity by pyloric ligation in rats; assay type: in vivo; settings: for % inhibition of gastric acidity: 15 min before pyloric ligation
T3 construct: from tissue; host or cells: living albino rats (stomach)
T3 sequence (P08482 1-460): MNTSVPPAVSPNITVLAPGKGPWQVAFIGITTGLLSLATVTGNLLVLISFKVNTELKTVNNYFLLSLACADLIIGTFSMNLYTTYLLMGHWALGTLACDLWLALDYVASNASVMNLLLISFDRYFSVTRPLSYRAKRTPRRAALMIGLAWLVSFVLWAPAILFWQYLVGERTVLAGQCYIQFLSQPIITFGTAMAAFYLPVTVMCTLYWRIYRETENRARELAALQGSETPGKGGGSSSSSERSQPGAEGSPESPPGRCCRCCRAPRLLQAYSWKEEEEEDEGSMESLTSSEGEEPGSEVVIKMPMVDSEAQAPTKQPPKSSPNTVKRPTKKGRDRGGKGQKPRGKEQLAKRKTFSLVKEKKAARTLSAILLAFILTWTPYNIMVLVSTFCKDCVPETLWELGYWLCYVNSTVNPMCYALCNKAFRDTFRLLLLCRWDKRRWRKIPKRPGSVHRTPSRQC
Procedure: These activities were tested upon rats. […] For comparative purposes, the doses of atropine used for testing gastric acidity were 0.01 milligram per kilogram of the body weight of rat injected subcutaneously (0.01 mg/kg s.c), 0.05 milligram per kilogram of the body weight of rat injected subcutaneously (0.05 mg/kg s.c), 0.10 milligram per kilogram of the body weight of rat injected subcutaneously (0.10 mg/kg s.c.).
The in vivo experiments for gastric acidity testing were performed by pyloric ligation on rats. Albino rats of either sex weighing 190-250 grams were randomly divided into groups of 6, with a group of 6 rats serving as control. All the rats were starved for 48 hours prior to the experiment. After the first 24 hours, they were given access to 8% sucrose in 0.2% sodium chloride for 8 hours. Water was permitted adlibitum except during the 8 hours of sucrose treatment and 2 hours previous to pyloric ligation.
Basal gastric acidity was determined by pyloric ligation under ether anaesthesia followed by gastric lavage with normal saline. […] Three hours later the animals were killed and the stomach was tied at the oesophageal junction and removed. The contents were collected by cutting along the greater curvature and the free acidity was determined by titration against 0.01 normal NaOH using Topfers reagent as indicator.

M3 receptors [3] = target: T2, M3 receptors; experiment: Dose response curve of acetylcholine on guinea pig bladder detrusor strips; settings: 98, 196 and 392×10^−6 moles per ml of bath
Text: as §1
The longitudinal bladder detrusor strips were suspended under a resting tension (0.5 g) in aerated Tyrode physiological solution. Tension was measured with an isometric force transducer (FT 305), and responses were recorded on a Biodevices Physiograph. Antimuscarinic activity was determined from concentration response curves to acetylcholine in the absence or presence of increasing concentrations of the said compound. Contractile responses were expressed as a percentage of the maximum contraction elicited by acetylcholine in the absence of the said compound.

CN1[C@@H]2CC[C@H]1C[C@@H](OC(=O)C(CO)c1ccccc1)C2 (stereo partly drawn) [Atropine, reference compound]
Inhibitory effect on rate and force of contraction of guinea pig atria (M2 block) (M2 receptors): inhibitory effect on all the three receptors

CCCCCCCCCCCCCCCC(=O)OC [methyl palmitate]
Mutagenic effect (Salmonella): devoid of any mutagenic effect | Oral toxicity [1]: nontoxic | Antagonism of acetylcholine contractions of ileum smooth muscle (M3 receptors [2]): antagonised contractions of smooth muscle of the ileum | % inhibition of gastric acidity (M1 receptors; rat, 1 mg/kg s.c.): 50.72% | % inhibition of gastric acidity (M1 receptors; rat, 3 mg/kg s.c., 3 mg/kg): 55% | % inhibition of gastric acidity (M1 receptors; rat, 5 mg/kg s.c., 5 mg/kg): 91.5% | Effect on basal gastric (free) acidity (M1 receptors; rat, 1, 3 & 5 mg/kg s.c.): decreased free acidity; also recorded: inhibited basal gastric acidity dose dependently | ED50 (M1 receptors; sc, rat, s.c., read-out: ED50 for inhibition of gastric acidity): 2.74 mg/kg | Antagonism of acetylcholine on bladder detrusor strips (M3 receptors [3]): antagonised the effect of acetylcholine in a dose-dependent and competitive manner | Inotropic or chronotropic effect on its own on guinea pig atrium (M2 receptors; 20, 40, 196 and 392×10^−6 moles per ml of bath): did not produce any positive inotropic or chronotropic effect | Inhibitory effect on rate and force of contraction of guinea pig atria (M2 block) (M2 receptors): had no such effect in the dosage range used; also recorded: does not block M2 receptors
